Several values for one entry are separate records, joined by “and”; a condition that tells them apart may be missing. Equal values may be shown once. After the bases stand the sugars from the 5' end (letter, count) and the backbone: PS all phosphorothioate, else s phosphorothioate and o phosphodiester by linkage. Methylation of C is not given here. k = constrained ethyl (cEt); d = 2'-deoxy (DNA)
molecular target: MALAT1; settings: ASO, A431, 0.005 µM

Compared with CTTCAGGATCATTAAG (sugars k3 d10 k3, PS), CTTCCCGTACTTCTGT (sugars k3 d10 k3, PS) is higher in target mRNA inhibition: 3% for the first, 43% for the second.

Going from CTTCGGATGCTTCACT (sugars k3 d10 k3, PS) to CTTCGGTTAAAAATAG (sugars k3 d10 k3, PS), the target mRNA inhibition falls from 33% to 4%.

Compared with CTTGAAACCGATTATG (sugars k3 d10 k3, PS), CTTGACCTTAGGATAA (sugars k3 d10 k3, PS) is higher in target mRNA inhibition: 38% for the first, 44% for the second.

Compared with CTTGGGAAATCTTAGA (sugars k3 d10 k3, PS), CTTTAAATGACGCAAT (sugars k3 d10 k3, PS) is higher in target mRNA inhibition: -11% for the first, 35% for the second.

First: CTTTAAATTGGTAGCT (sugars k3 d10 k3, PS)
Second: CTTTAAGCCTTCGGTG (sugars k3 d10 k3, PS)
The target mRNA inhibition of the first is higher: 45% for the first, -3% for the second.

Going from CTTTACAGAAGTCTCG (sugars k3 d10 k3, PS) to CTTTATCACTCAGCTG (sugars k3 d10 k3, PS), the target mRNA inhibition rises from 22% to 37%.

First: CTTTCATAGAGCCTTC (sugars k3 d10 k3, PS)
Second: GAAACCGATTATGGAT (sugars k3 d10 k3, PS)
The target mRNA inhibition of the first is higher: 43% for the first, 34% for the second.

Compared with GAAACCTACAACACCC (sugars k3 d10 k3, PS), GAAAGTGCCATGGTTG (sugars k3 d10 k3, PS) is higher in target mRNA inhibition: 20% for the first, 41% for the second.

Compared with GAACAACTCGCATCAC (sugars k3 d10 k3, PS), GAACCACAACAATTTA (sugars k3 d10 k3, PS) is higher in target mRNA inhibition: 15% for the first, 19% for the second.

Compared with GAACCGGAGCAGGAAG (sugars k3 d10 k3, PS), GAAGAATACCATCTGA (sugars k3 d10 k3, PS) is lower in target mRNA inhibition: 28% for the first, 5% for the second.

Compared with GAAGAATCCCCCCCAA (sugars k3 d10 k3, PS), GAAGAGATACCTGTCT (sugars k3 d10 k3, PS) is lower in target mRNA inhibition: 11% for the first, -22% for the second.

Compared with GAAGAGCCAAGCACTC (sugars k3 d10 k3, PS), GAAGTCTCGGGCTGCA (sugars k3 d10 k3, PS) is higher in target mRNA inhibition: -9% for the first, 6% for the second.

Going from GAATACCATCTGAAAG (sugars k3 d10 k3, PS) to GAATGTTTCTTGTCAC (sugars k3 d10 k3, PS), the target mRNA inhibition rises from 16% to 43%.

Compared with GAATTACTTCCGTTAC (sugars k3 d10 k3, PS), GACCCTACTGAAGAGC (sugars k3 d10 k3, PS) is lower in target mRNA inhibition: 36% for the first, 32% for the second.

First: GACCTCGACACCATCG (sugars k3 d10 k3, PS)
Second: GACCTGAAGTCAAGAC (sugars k3 d10 k3, PS)
The target mRNA inhibition of the first is higher: 44% for the first, -1% for the second.

Going from GACGGTTGAGAAGTGG (sugars k3 d10 k3, PS) to GACTAAAGGCTTCAGT (sugars k3 d10 k3, PS), the target mRNA inhibition falls from 25% to 15%.

Going from GACTCTGGGAAACCTG (sugars k3 d10 k3, PS) to GAGAAATCGGAGCAGC (sugars k3 d10 k3, PS), the target mRNA inhibition rises from 1% to 15%.

Going from GAGAAGAATCCCCCCC (sugars k3 d10 k3, PS) to GAGCAGCACGGGCTGT (sugars k3 d10 k3, PS), the target mRNA inhibition falls from 17% to 14%.

Going from GAGGCTGACACTTCTC (sugars k3 d10 k3, PS) to GAGTTTGAGTGGTTTT (sugars k3 d10 k3, PS), the target mRNA inhibition rises from -10% to 26%.

First: GATCACTTTAGAGGCT (sugars k3 d10 k3, PS)
Second: GATCTGGTCCATTAAA (sugars k3 d10 k3, PS)
The target mRNA inhibition of the first is lower: -8% for the first, 25% for the second.

First: GATGTATATAGTTCAA (sugars k3 d10 k3, PS)
Second: GATTAGTAGTCAAAGC (sugars k3 d10 k3, PS)
The target mRNA inhibition of the first is lower: 7% for the first, 24% for the second.

Going from GATTCATGAGTATAAG (sugars k3 d10 k3, PS) to GATTTGAACCCCGTCC (sugars k3 d10 k3, PS), the target mRNA inhibition falls from 50% to -2%.

First: GCAAAATGGCGGACTT (sugars k3 d10 k3, PS)
Second: GCAAAATGTACTCAGC (sugars k3 d10 k3, PS)
The target mRNA inhibition of the first is lower: -4% for the first, 23% for the second.

Compared with GCAAATCGCCATGGAA (sugars k3 d10 k3, PS), GCAAGTTAAACTTATC (sugars k3 d10 k3, PS) is higher in target mRNA inhibition: 21% for the first, 42% for the second.

Going from GCACTCATATGCAATT (sugars k3 d10 k3, PS) to GCAGAGTTTGAGTGGT (sugars k3 d10 k3, PS), the target mRNA inhibition falls from 6% to -9%.

First: GCAGGGACGGTTGAGA (sugars k3 d10 k3, PS)
Second: GCATCTAGGCCATCAT (sugars k3 d10 k3, PS)
The target mRNA inhibition of the first is lower: 8% for the first, 57% for the second.

Compared with GCATTCCCACCCAAAA (sugars k3 d10 k3, PS), GCCAACAGCACAGCGG (sugars k3 d10 k3, PS) is lower in target mRNA inhibition: 34% for the first, 8% for the second.

First: GCCAAGCCAAGCCGCC (sugars k3 d10 k3, PS)
Second: GCCAAGCCGCCTGCTA (sugars k3 d10 k3, PS)
The target mRNA inhibition of the first is lower: 14% for the first, 20% for the second.

Compared with GCCATGGTTGATATTT (sugars k3 d10 k3, PS), GCCCCCCAGTTGCCGC (sugars k3 d10 k3, PS) is lower in target mRNA inhibition: 9% for the first, -35% for the second.

Compared with GCCGCCTCTTAAAGCA (sugars k3 d10 k3, PS), GCCTACCGCACAGCTC (sugars k3 d10 k3, PS) is higher in target mRNA inhibition: -11% for the first, 26% for the second.

First: GCCTATCTTCTCCAGT (sugars k3 d10 k3, PS)
Second: GCCTCAATCCCACACC (sugars k3 d10 k3, PS)
The target mRNA inhibition of the first is higher: 27% for the first, 2% for the second.

Compared with GCCTTGCAGGGACGGT (sugars k3 d10 k3, PS), GCGGGATCAGAACAGT (sugars k3 d10 k3, PS) is higher in target mRNA inhibition: -10% for the first, 40% for the second.

First: GCTACTGGCTGCATCG (sugars k3 d10 k3, PS)
Second: GCTCTATACTTTGAAG (sugars k3 d10 k3, PS)
The target mRNA inhibition of the first is lower: 43% for the first, 51% for the second.

First: GCTGAGTGTTCCTGCA (sugars k3 d10 k3, PS)
Second: GCTGCATCGAGGTGAG (sugars k3 d10 k3, PS)
The target mRNA inhibition of the first is lower: 22% for the first, 24% for the second.

First: GCTGGTTATGACTCAG (sugars k3 d10 k3, PS)
Second: GCTTAAGAGGGCAGGA (sugars k3 d10 k3, PS)
The target mRNA inhibition of the first is higher: 9% for the first, -7% for the second.

Compared with GCTTTCCCTGTGGCCT (sugars k3 d10 k3, PS), GGAAATCTTAGAAACG (sugars k3 d10 k3, PS) is higher in target mRNA inhibition: 10% for the first, 36% for the second.

First: GGAATACTCTTCCAAG (sugars k3 d10 k3, PS)
Second: GGACATCTCTTCCACA (sugars k3 d10 k3, PS)
The target mRNA inhibition of the first is lower: 6% for the first, 24% for the second.

First: GGACATTGCCTCTTCA (sugars k3 d10 k3, PS)
Second: GGACTTTCTCCCCCAA (sugars k3 d10 k3, PS)
The target mRNA inhibition of the first is higher: 54% for the first, -5% for the second.

First: GGAGATCAGCTTCCGC (sugars k3 d10 k3, PS)
Second: GGATCCAAGCTACTGG (sugars k3 d10 k3, PS)
The target mRNA inhibition of the first is lower: -7% for the first, 18% for the second.

First: GGATTCTAGACAGACC (sugars k3 d10 k3, PS)
Second: GGATTTTTACCAACCA (sugars k3 d10 k3, PS)
The target mRNA inhibition of the first is higher: 44% for the first, 14% for the second.

Compared with GGCAAATCGCCATGGA (sugars k3 d10 k3, PS), GGCAGTTATATTAGGT (sugars k3 d10 k3, PS) is lower in target mRNA inhibition: 22% for the first, 16% for the second.

Compared with GGCCTTTTCTAACATA (sugars k3 d10 k3, PS), GGCTATCAAATTCATT (sugars k3 d10 k3, PS) is higher in target mRNA inhibition: 2% for the first, 42% for the second.

Compared with GGCTATTACCTGAAAA (sugars k3 d10 k3, PS), GGCTGGTTATGACTCA (sugars k3 d10 k3, PS) is higher in target mRNA inhibition: 6% for the first, 40% for the second.

Compared with GGCTTTAAATGACGCA (sugars k3 d10 k3, PS), GGGAAAAGTGGTTGCC (sugars k3 d10 k3, PS) is lower in target mRNA inhibition: 17% for the first, 9% for the second.

First: GGGATTTGAACCCCGT (sugars k3 d10 k3, PS)
Second: GGGTTATGCTTATTCC (sugars k3 d10 k3, PS)
The target mRNA inhibition of the first is lower: -1% for the first, 28% for the second.

Compared with GGTCAGGAGAAAGTGC (sugars k3 d10 k3, PS), GGTTAAGCACTTTTAA (sugars k3 d10 k3, PS) is higher in target mRNA inhibition: 18% for the first, 38% for the second.

First: GGTTACCAATAATTTC (sugars k3 d10 k3, PS)
Second: GGTTTCCTCAAGCTCC (sugars k3 d10 k3, PS)
The target mRNA inhibition of the first is higher: 93% for the first, 34% for the second.

First: GTAAGAATTAAGACCA (sugars k3 d10 k3, PS)
Second: GTAAGCCCCACCCCCT (sugars k3 d10 k3, PS)
The target mRNA inhibition of the first is higher: 37% for the first, -35% for the second.

First: GTAGGTATAGTTTACC (sugars k3 d10 k3, PS)
Second: GTATGAGCTTCAGACC (sugars k3 d10 k3, PS)
The target mRNA inhibition of the first is higher: 39% for the first, -6% for the second.

Compared with GTCAATAGTGTAAAAC (sugars k3 d10 k3, PS), GTCAATTTATAGACCC (sugars k3 d10 k3, PS) is lower in target mRNA inhibition: 33% for the first, 18% for the second.

Going from GTCCCATAACTGATCT (sugars k3 d10 k3, PS) to GTCCCTGAAGGTGTTC (sugars k3 d10 k3, PS), the target mRNA inhibition falls from 35% to 23%.

Compared with GTCTAGGATCCTCTAC (sugars k3 d10 k3, PS), GTCTGAGGCAAACGAA (sugars k3 d10 k3, PS) is higher in target mRNA inhibition: 14% for the first, 29% for the second.

Going from GTCTGATTATCCTGAT (sugars k3 d10 k3, PS) to GTGAGAACTGCTCTAG (sugars k3 d10 k3, PS), the target mRNA inhibition rises from 33% to 36%.

Compared with GTGCCTGGAATTATTA (sugars k3 d10 k3, PS), GTGGCAAAATGGCGGA (sugars k3 d10 k3, PS) is lower in target mRNA inhibition: 39% for the first, 21% for the second.

With GTGTAAAACATTGCCT (sugars k3 d10 k3, PS) the target mRNA inhibition was 0%.

CTTGAATTACTTCCGT (sugars k3 d10 k3, PS) was tested, and the target mRNA inhibition was 56% and 40%.
For GAGATTTGGGCTTTAT (sugars k3 d10 k3, PS), the target mRNA inhibition was 34% and 33%.
For GCACTTTTAAAGTCTG (sugars k3 d10 k3, PS), the target mRNA inhibition was 74% and 91%.
For GTCCTTTTAGTAGCTT (sugars k3 d10 k3, PS), the target mRNA inhibition was 50% and 72%.
In the case of GTGTGGTTGCCAAGCC (sugars k3 d10 k3, PS), the target mRNA inhibition is reported as 43% and 37% and 50%.

Source: the OligoGym collection
